Measurements reported in ChEMBL document CHEMBL3880421, “Indazole compounds and pharmaceutical compositions for inhibiting protein kinases, and methods for their use” (2003).

Assay: Antiproliferative activity against VEGF-stimulated HUVEC cells assessed as reduction in cell viability at 10 nM preincubated for 1 hr followed by addition of VEGF measured after 72 hrs by MTT assay
Format: functional
Conditions: Homo sapiens

Compound | inhibition at 0.01 µM
O=C(Cc1ccccc1)C(=O)Nc1cccc(C(=O)c2ccc3c(/C=C/c4ccccc4)n[nH]c3c2)c1 | -37%
O=C(Nc1cccc(Oc2ccc3c(/C=C/c4ccccc4)n[nH]c3c2)c1)C1CCOC1 (centres undefined) | 40%
CC(C)[C@@H](O)C(=O)Nc1cccc(Oc2ccc3c(/C=C/c4ccccc4)n[nH]c3c2)c1 | 32%
O=C(c1cccc(NC(=O)C2CCOC2)c1)c1ccc2c(/C=C/c3ccccc3)n[nH]c2c1 (centres undefined) | 12%
O=C1C[C@H](C(=O)Nc2cccc(Oc3ccc4c(/C=C/c5ccccc5)n[nH]c4c3)c2)NC(=O)N1 | -6%
O=C(Cc1cc(F)cc(F)c1)Nc1cccc(C(=O)c2ccc3c(/C=C/c4ccccc4)n[nH]c3c2)c1 | 87%
Cc1cc(C(=O)Nc2cccc(C(=O)c3ccc4c(/C=C/c5ccccc5)n[nH]c4c3)c2)oc(=O)c1 | 64%
O=C(Nc1cccc(Nc2ccc3c(/C=C/c4ccccc4)n[nH]c3c2)c1)c1cccc2cc[nH]c12 | 94%
CC1(C)OC(=O)CC1C(=O)Nc1cccc(Nc2ccc3c(/C=C/c4ccccc4)n[nH]c3c2)c1 (centres undefined) | 16%
COc1ccc(C#N)c(C(=O)Nc2cccc(Oc3ccc4c(/C=C/c5ccccc5)n[nH]c4c3)c2)c1 | 18%
CC(=O)NC(C)(C)CC(=O)Nc1cccc(Nc2ccc3c(/C=C/c4ccccc4)n[nH]c3c2)c1 | -9%
O=C(Nc1cccc(Nc2ccc3c(/C=C/c4ccccc4)n[nH]c3c2)c1)C1CC2C=CCC(C2)C1 (centres undefined) | -17%
O=C1CCC(C(=O)Nc2cccc(Nc3ccc4c(/C=C/c5ccccc5)n[nH]c4c3)c2)CC1 | -7%
O=C(Cc1cccnc1)Nc1cccc(C(=O)c2ccc3c(/C=C/c4ccccc4)n[nH]c3c2)c1 | 21%
CC(C)=CC1C(C(=O)Nc2cccc(Oc3ccc4c(/C=C/c5ccccc5)n[nH]c4c3)c2)C1(C)C (centres undefined) | 24%
Cc1ccc(C2(C(=O)Nc3cccc(Oc4ccc5c(/C=C/c6ccccc6)n[nH]c5c4)c3)CC2)cc1 | 4%
CC(=O)N1CCC(C(=O)Nc2cccc(Nc3ccc4c(/C=C/c5ccccc5)n[nH]c4c3)c2)CC1 | 13%
C[C@@H](CC(=O)Nc1cccc(Oc2ccc3c(/C=C/c4ccccc4)n[nH]c3c2)c1)c1ccccc1 | 42%
Cn1cnc(CC(=O)Nc2cccc(Nc3ccc4c(/C=C/c5ccccc5)n[nH]c4c3)c2)c1 | -17%
CN1CC(C(=O)Nc2cccc(Oc3ccc4c(/C=C/c5ccccc5)n[nH]c4c3)c2)CC1=O (centres undefined) | 24%
CN1CCC=C(C(=O)Nc2cccc(Oc3ccc4c(/C=C/c5ccccc5)n[nH]c4c3)c2)C1 | 43%
O=C(c1cccc(NC(=O)C2C[C@H]3C=C[C@H]2C3)c1)c1ccc2c(/C=C/c3ccccc3)n[nH]c2c1 (some centres undefined) | 44%
O=C(Nc1cccc(Nc2ccc3c(/C=C/c4ccccc4)n[nH]c3c2)c1)C1CC2CC(O)C1C2 (centres undefined) | -20%
O=C(/C=C/C(=O)Nc1cccc(Oc2ccc3c(/C=C/c4ccccc4)n[nH]c3c2)c1)NCC1CC1 | 36%
O=C(Nc1cccc(C(=O)c2ccc3c(/C=C/c4ccccc4)n[nH]c3c2)c1)c1ccc(=O)oc1 | -62%
O=C(Nc1cccc(Nc2ccc3c(/C=C/c4ccccc4)n[nH]c3c2)c1)C1C[C@H]2C[C@@H]1CCC2O (some centres undefined) | -9%
COC1CCCC(C(=O)Nc2cccc(Oc3ccc4c(/C=C/c5ccccc5)n[nH]c4c3)c2)C1 (centres undefined) | 91%

Compound | inhibition at 0.01 µM
CN(C)C(=S)SCC(=O)Nc1cccc(Nc2ccc3c(/C=C/c4ccccc4)n[nH]c3c2)c1 | 32%
O=C(CCN1CCCCC1)Nc1cccc(C(=O)c2ccc3c(/C=C/c4ccccc4)n[nH]c3c2)c1 | 2%
O=C(Nc1cccc(Nc2ccc3c(/C=C/c4ccccc4)n[nH]c3c2)c1)C1CCCO1 (centres undefined) | 23%
O=C1C[C@H](C(=O)Nc2cccc(C(=O)c3ccc4c(/C=C/c5ccccc5)n[nH]c4c3)c2)NC(=O)N1 | -36%
CN1CC(C(=O)Nc2cccc(C(=O)c3ccc4c(/C=C/c5ccccc5)n[nH]c4c3)c2)CC1=O (centres undefined) | 10%
CC(C)=CC1C(C(=O)Nc2cccc(C(=O)c3ccc4c(/C=C/c5ccccc5)n[nH]c4c3)c2)C1(C)C (centres undefined) | 3%
CN1CCC=C(C(=O)Nc2cccc(Nc3ccc4c(/C=C/c5ccccc5)n[nH]c4c3)c2)C1 | 0%
COc1cccc(/C=C/C(=O)Nc2cccc(Oc3ccc4c(/C=C/c5ccccc5)n[nH]c4c3)c2)c1 | 64%
O=C(Cc1c(F)cccc1F)Nc1cccc(C(=O)c2ccc3c(/C=C/c4ccccc4)n[nH]c3c2)c1 | 81%
CC(C)(C)c1ccc(C(=O)Nc2cccc(Nc3ccc4c(/C=C/c5ccccc5)n[nH]c4c3)c2)o1 | 60%
CN(C)CCCC(=O)Nc1cccc(C(=O)c2ccc3c(/C=C/c4ccccc4)n[nH]c3c2)c1 | 24%
CC(C)CC(O)C(=O)Nc1cccc(Nc2ccc3c(/C=C/c4ccccc4)n[nH]c3c2)c1 (centres undefined) | 25%
Cn1cnc(CC(=O)Nc2cccc(C(=O)c3ccc4c(/C=C/c5ccccc5)n[nH]c4c3)c2)c1 | 31%
C[C@@]12C[C@H]3C[C@H]1C[C@@]3(C(=O)Nc1cccc(Nc3ccc4c(/C=C/c5ccccc5)n[nH]c4c3)c1)C2 | 15%
CN1CC(C(=O)Nc2cccc(Nc3ccc4c(/C=C/c5ccccc5)n[nH]c4c3)c2)CC1=O (centres undefined) | 20%
CCNc1ccccc1C(=O)Nc1cccc(C(=O)c2ccc3c(/C=C/c4ccccc4)n[nH]c3c2)c1 | 54%
O=C(Cc1c(F)cccc1F)Nc1cccc(Oc2ccc3c(/C=C/c4ccccc4)n[nH]c3c2)c1 | 93%
O=C(c1cccc(NC(=O)c2cc(=O)cco2)c1)c1ccc2c(/C=C/c3ccccc3)n[nH]c2c1 | -13%
O=C(Nc1cccc(Nc2ccc3c(/C=C/c4ccccc4)n[nH]c3c2)c1)[C@H]1CCC[C@H]1O | -4%
COc1cccc(CC(=O)Nc2cccc(Oc3ccc4c(/C=C/c5ccccc5)n[nH]c4c3)c2)c1 | 86%
O=C1CC[C@H](C(=O)Nc2cccc(Oc3ccc4c(/C=C/c5ccccc5)n[nH]c4c3)c2)N1 | 32%
CC(=O)N1CCCC1C(=O)Nc1cccc(C(=O)c2ccc3c(/C=C/c4ccccc4)n[nH]c3c2)c1 (centres undefined) | 10%
CC(C)(C)[C@@H](O)C(=O)Nc1cccc(C(=O)c2ccc3c(/C=C/c4ccccc4)n[nH]c3c2)c1 | 27%
CN(C)CCCC(=O)Nc1cccc(Oc2ccc3c(/C=C/c4ccccc4)n[nH]c3c2)c1 | 96%
O=C(Cn1ccc2ccccc21)Nc1cccc(Oc2ccc3c(/C=C/c4ccccc4)n[nH]c3c2)c1 | 52%
O=C(CCC(=O)N1CCCC1)Nc1cccc(Oc2ccc3c(/C=C/c4ccccc4)n[nH]c3c2)c1 | 48%
Cc1cc(C(=O)Nc2cccc(Nc3ccc4c(/C=C/c5ccccc5)n[nH]c4c3)c2)no1 | 6%

Compound | inhibition at 0.01 µM
O=C(Cc1ccccc1)C(=O)Nc1cccc(Oc2ccc3c(/C=C/c4ccccc4)n[nH]c3c2)c1 | 25%
O=C(c1cccc(NC(=O)C2CC3C=CCC(C3)C2)c1)c1ccc2c(/C=C/c3ccccc3)n[nH]c2c1 (centres undefined) | 56%
Cc1ccc(CCC(=O)Nc2cccc(C(=O)c3ccc4c(/C=C/c5ccccc5)n[nH]c4c3)c2)cc1 | 57%
CN1CSCCC1C(=O)Nc1cccc(Nc2ccc3c(/C=C/c4ccccc4)n[nH]c3c2)c1 (centres undefined) | 0%
O=C(Cc1c(F)cccc1F)Nc1cccc(Nc2ccc3c(/C=C/c4ccccc4)n[nH]c3c2)c1 | 40%
CC1(C)C(C(=O)Nc2cccc(Oc3ccc4c(/C=C/c5ccccc5)n[nH]c4c3)c2)C1(C)C | 71%
C[C@@H]1[C@H](C)[C@H](C)C[C@@H]1C(=O)Nc1cccc(Oc2ccc3c(/C=C/c4ccccc4)n[nH]c3c2)c1 | 23%
O=C(CCC(=O)N1CCCC1)Nc1cccc(C(=O)c2ccc3c(/C=C/c4ccccc4)n[nH]c3c2)c1 | 27%
O=C(c1cccc(NC(=O)C2CC3C=CC2CC3)c1)c1ccc2c(/C=C/c3ccccc3)n[nH]c2c1 (centres undefined) | 42%
O=C(c1cccc(NC(=O)c2cccc3cc[nH]c23)c1)c1ccc2c(/C=C/c3ccccc3)n[nH]c2c1 | 58%
CC(=O)N1CCCC1C(=O)Nc1cccc(Nc2ccc3c(/C=C/c4ccccc4)n[nH]c3c2)c1 (centres undefined) | -2%
C[C@@]12C[C@H]3C[C@H]1C[C@@]3(C(=O)Nc1cccc(Oc3ccc4c(/C=C/c5ccccc5)n[nH]c4c3)c1)C2 | 30%
O=C1CCC(C(=O)Nc2cccc(C(=O)c3ccc4c(/C=C/c5ccccc5)n[nH]c4c3)c2)CC1 | 10%
CC(=O)N1CCC[C@@H]1C(=O)Nc1cccc(C(=O)c2ccc3c(/C=C/c4ccccc4)n[nH]c3c2)c1 | 37%
CN1CSCCC1C(=O)Nc1cccc(C(=O)c2ccc3c(/C=C/c4ccccc4)n[nH]c3c2)c1 (centres undefined) | 8%
Cc1nc(S)sc1CC(=O)Nc1cccc(C(=O)c2ccc3c(/C=C/c4ccccc4)n[nH]c3c2)c1 | 24%
Cc1nc(S)sc1CC(=O)Nc1cccc(Oc2ccc3c(/C=C/c4ccccc4)n[nH]c3c2)c1 | 45%
CC(C)(C)[C@@H](O)C(=O)Nc1cccc(Oc2ccc3c(/C=C/c4ccccc4)n[nH]c3c2)c1 | 30%
CC1(C)OC(=O)[C@H](CC(=O)Nc2cccc(C(=O)c3ccc4c(/C=C/c5ccccc5)n[nH]c4c3)c2)O1 | 19%
Cn1cnc(CC(=O)Nc2cccc(Oc3ccc4c(/C=C/c5ccccc5)n[nH]c4c3)c2)c1 | 20%
O=C(Cn1ccc2ccccc21)Nc1cccc(Nc2ccc3c(/C=C/c4ccccc4)n[nH]c3c2)c1 | -7%
O=C1CCC(C(=O)Nc2cccc(Oc3ccc4c(/C=C/c5ccccc5)n[nH]c4c3)c2)CC1 | 59%
O=C(Nc1cccc(Nc2ccc3c(/C=C/c4ccccc4)n[nH]c3c2)c1)C1C[C@H]2C=C[C@H]1C2 (some centres undefined) | 5%
CC(C)(C)c1ccc(C(=O)Nc2cccc(C(=O)c3ccc4c(/C=C/c5ccccc5)n[nH]c4c3)c2)o1 | 71%
Cc1cc(C(=O)Nc2cccc(Nc3ccc4c(/C=C/c5ccccc5)n[nH]c4c3)c2)n[nH]1 | 86%
